According to patent publication US6310093A (priority 1998, dated 2001):
Several values for one entry are separate records, joined by “and”; a condition that tells them apart may be missing. Identical values can stand only once.

Key:
[1] = system: pure neuronal cultures (cortical neurons) exposed to glutamine
[2] = system: glial cultures (astrocytes); assay: Glutamate and cell death in glial cultures exposed to hypoxia with glutamine; format: cell-based, mouse (Swiss Webster); conditions: for Glu: hypoxia, 2 mM Gln
Procedure: Measurements of glutamate and glutamine concentrations, as well as of the release of the cytoplasmic marker enzyme, lactate dehydrogenase (LDH), were made with the medium of mixed neuronal-astrocyte cultures exposed to hypoxic and control conditions, with and without the addition of 2 mM glutamine. For comparative purposes, the measurements were made in mixed cultures in which complete neuronal death was caused by a 5h exposure to 500 μM NMDA. The first glutamate measurement was made at the end of hypoxia (5h with mixed cultures, 7h with astrocytes), and the second at 19 h after the subsequent return of oxygen. If added, glutamine was present during and after hypoxia. LDH released by the experimental treatment was measured at 24 h, and is expressed as a percentage of the total cellular content (neurons in mixed cultures, and glia in glial cultures). To verify the neuronal origin of LDH and glutamate, similar experiments were performed on cultures that only contained glia.
Astrocytes were cultured from cortical cell suspensions from 1-2 day old Swiss Webster mouse pups. Mixed cultures of neurons and astrocytes were obtained by plating cortical neurons from embryonic day 15-16 mice on confluent astrocyte monolayers. Pure neuronal cultures were made from the same embryonic cortical cell suspensions; astrocyte growth was inhibited by adding cytosine arabinoside and decreasing serum in the medium. For survival, neuronal cultures were fed with glial conditioned medium. Neuronal cultures were used for experiments at 11-15 days in vitro, and mixed cultures at 13-15 days after plating the neurons.
Hypoxia was carried out at 37° C. in an anoxic chamber (<0.2% oxygen; Forma Scientific). Before each experiment, the medium was pre-equilibrated with an anoxic gas mixture containing 5% CO2, 85% N2 and 10% H2 and incubated at 37° C. […] The oxygen tension in the anoxic chamber was monitored using an oxygen electrode (Model MI-730; Microelectrodes Inc.). […]

glutaminase = conditions: Kovacevic and McGiven, 1983; read-out: Km of glutaminase for glutamine; cited from earlier work
[3] = system: mixed neuronal-astrocyte cultures
[4] = system: ischemic penumbra (dialysate glutamate); assay: In vivo microdialysis of ischemic penumbra after MCAO; design: species or system rat; conditions: 10 mM glutamine plus 20 mM sodium phosphate, 1 h; ±115%
Procedure: In further microdialysis experiments, exogenous glutamine was added to the ischemic penumbra via the probe, and dialysis glutamate was measured, as described in Example 7. When 10 mM glutamine plus 20 mM sodium phosphate were perfused into the penumbra for one hour, dialysate glutamate was elevated 315% as compared to control (±115%). […] The effects on glutamate were much more pronounced than on other amino acids measured; therefore, these studies provided further support for the involvement of extracellular glutaminase activity in producing the elevated levels of glutamate in cortical tissue undergoing ischemic damage.
The middle cerebral arteries of rats were occluded as in EXAMPLE 7, and the rats were returned to their cages overnight. The next morning, dialysis probes ([…], 2 mm length, 20,000 dalton cutoff) were inserted into ischemic penumbra (cortex) and perfused with artificial CSF at 3 μl/min for 1 h prior to collection of 10 minute fractions of dialysate. The effectiveness of the occlusion and the placement of probes were verified by TTC staining of 1 mm sections at the conclusion of the experiment. Amino acids in the dialysate were measured by reverse phase HPLC with fluorescence detection, after derivatization of the dialysates with o-phthaldialdehyde and N-acetyl-L-cysteine […]

NC(=O)CC[C@H](N)C(=O)O [Gln, glutamine]
medium glutamate [1]: 197 ± 23 μM Glu
cytotoxicity at 2000 µM ([2]; Mus musculus, Astrocyte, 24 h, read-out: % cell death (LDH)): 2 to 5%
Glu ([2]; 7 h): 0.39 ± .09 µM
Glu ([2]; 24 h): 0.39 ± 0.07 µM
Km (glutaminase): 2 to 8 mM
Glu [3]: 3.1 ± 0.28 and 3.88 ± 0.14
medium glutamate [3]: 2.3 ± 1.1 μM Glu
dialysate glutamate elevation vs control [4]: 315%
